From ChEMBL document CHEMBL4619708, “Synthesis and biological evaluation of isoliquiritigenin derivatives as a neuroprotective agent against glutamate mediated neurotoxicity in HT22 cells” (2020)
Calls of active or inactive are those of the source. The rule behind the calls is not given here.

Legend:
HT-22 [1] = assay: Neuroprotection against glutamate-induced oxidative stress in mouse HT22 cells assessed as increase in cell viability pretreated with glutamate for 24 hrs followed by compound addition by calcein AM and PI staining based assay; assay type: functional
HT-22 [2] = assay: Neuroprotection against glutamate-induced oxidative stress in mouse HT22 cells assessed as apoptotic or dead cells pretreated with glutamate for 8 hrs followed by compound addition by annexin V and PI staining based assay (reference value: 2.58%); assay type: functional
HT-22 [3] = assay: Neuroprotection against glutamate-induced oxidative stress in mouse HT22 cells assessed as reduction in cellular ROS level by DCFDA staining based FACS analysis; assay type: functional, cell-based
HT-22 [4] = assay: Neuroprotection against glutamate-induced oxidative stress in mouse HT22 cells assessed as increase in bcl2 protein level at 100 uM by Western blot analysis; assay type: functional, cell-based
HT-22 [5] = assay: Neuroprotection against glutamate-induced oxidative stress in mouse HT22 cells assessed as decrease in translocation of AIF to nucleus at 100 uM by Western blot analysis; assay type: functional, cell-based
HT-22 [6] = assay: Neuroprotection against glutamate-induced oxidative stress in mouse HT22 cells assessed as reduction in phosphorylated JNK protein level at 100 uM by Western blot analysis; assay type: functional, cell-based
HT-22 [7] = assay: Neuroprotection against glutamate-induced oxidative stress in mouse HT22 cells assessed as reduction in Ca2+ influx pretreated with glutamate for 8 hrs followed by compound addition by Fluo3-AM staining based fluorescent microscopic method; assay type: functional, cell-based
HT-22 [8] = assay: Neuroprotection against glutamate-induced oxidative stress in mouse HT22 cells assessed as reduction in bax protein level at 100 uM by Western blot analysis; assay type: functional, cell-based
HT-22 [9] = assay: Neuroprotection against glutamate-induced oxidative stress in mouse HT22 cells assessed as increase in cell viability at 100 uM pretreated with glutamate for 24 hrs followed by compound addition by calcein AM and PI staining based assay; assay type: functional
HT-22 [10] = assay: Neuroprotection against glutamate-induced oxidative stress in mouse HT22 cells assessed as increase in cell viability by MTT assay; assay type: functional, cell-based
HT-22 [11] = assay: Neuroprotective activity in mouse HT22 cells assessed as apoptotic or dead cells by annexin V and PI staining based assay (reference value: 2.58%); assay type: functional
HT-22 [12] = assay: Neuroprotection against glutamate-induced oxidative stress in mouse HT22 cells assessed as reduction in Ca2+ influx pretreated with glutamate for 8 hrs followed by compound addition by Fluo3-AM staining based fluorescent microscopic method relative to control; assay type: functional; design: scale not given: the % may be the effect or the level left
HT-22 [13] = assay: Neuroprotection against glutamate-induced oxidative stress in mouse HT22 cells assessed as reduction in phosphorylated ERK protein level at 100 uM by Western blot analysis; assay type: functional, cell-based
HT-22 [14] = assay: Neuroprotection against glutamate-induced oxidative stress in mouse HT22 cells assessed as reduction in phosphorylated p38 protein level at 100 uM by Western blot analysis; assay type: functional, cell-based
HT-22 [15] = assay: Neuroprotection against glutamate-induced oxidative stress in mouse HT22 cells assessed as increase in cell viability at 50 to 100 uM pretreated with glutamate for 24 hrs followed by compound addition by calcein AM and PI staining based assay; assay type: functional
HT-22 [16] = assay: Neuroprotection against glutamate-induced oxidative stress in mouse HT22 cells assessed as increase in cell viability at 3 to 6 uM pretreated with glutamate for 24 hrs followed by compound addition by calcein AM and PI staining based assay; assay type: functional

| Structure (SMILES) | Activity (HT-22 [1]) | further results |
| --- | --- | --- |
| O=C(/C=C/c1ccc2[nH]ccc2c1)c1ccc(O)cc1O | Active | – |
| O=C(/C=C/c1ccccc1)c1ccc(O)cc1O | inactive | – |
| CN(C)c1ccc(/C=C/C(=O)c2ccc(O)cc2O)cc1 | Active | Activity (HT-22 [2]): 6.4%; Activity (HT-22 [3]): Active; Activity (HT-22 [4]): Active; Activity (HT-22 [5]): Active; Activity (HT-22 [6]): Active; Activity (HT-22 [7]): Active; Activity (HT-22 [8]): Active; Activity (HT-22 [9]): Active; Activity (HT-22 [10]): Active; Activity (HT-22 [11]): 6.01%; Activity (HT-22 [12]): 50%; Activity (HT-22 [13]): Active; Activity (HT-22 [14]): Active |
| O=C(/C=C/c1ccc(-c2ccccc2)cc1)c1ccc(O)cc1O | inactive | – |
| COc1cc(/C=C/C(=O)c2ccc(O)cc2O)cc(OC)c1OC | inactive | – |
| COc1cccc(/C=C/C(=O)c2ccc(O)cc2O)c1 | inactive | – |
| O=C(/C=C/c1ccc(C(F)(F)F)cc1)c1ccc(O)cc1O | inactive | – |
| O=C(/C=C/c1ccc2ccccc2c1)c1ccc(O)cc1O | inactive | – |
| O=C(/C=C/c1ccc(O)cc1)c1ccc(O)cc1O | inactive | Activity (HT-22 [15]): inactive |
| COc1ccc(/C=C/C(=O)c2ccc(O)cc2O)cc1OC | inactive | – |
| O=C(/C=C/c1cccc(O)c1)c1ccc(O)cc1O | inactive | – |
| O=C(/C=C/c1ccc(O)c(O)c1)c1ccc(O)cc1O | inactive | – |
| O=C(/C=C/c1ccc(Cl)cc1)c1ccc(O)cc1O | inactive | – |
| COc1cc(/C=C/C(=O)c2ccc(O)cc2O)ccc1O | inactive | – |
| CCn1c2ccccc2c2cc(/C=C/C(=O)c3ccc(O)cc3O)ccc21 | inactive | – |
| COc1ccc(/C=C/C(=O)c2ccc(O)cc2O)cc1 | inactive | – |
| CC(=O)N[C@@H](CS)C(=O)O | inactive | – |
| COc1cc(Br)c(/C=C/C(=O)c2ccc(O)cc2O)cc1OC | inactive | Activity (HT-22 [16]): Active |
| COc1cc(/C=C/C(=O)c2ccc(O)cc2O)cc(OC)c1Br | inactive | – |
